Assays:
senescent IMR90 cells = assay: CellTiter-Glo cell viability assay, senescent IMR90; assay type: cell-based, human
Protocol: (§1) To determine whether ABT-263 is selectively toxic to senescent cells compared to non-senescent cells, a cell viability assay was used to assess cell survival following treatment with ABT-263. IMR90 cells (human primary lung fibroblasts (IMR90) (IMR-90 (ATCC® CCL-186™, Manassas, Virginia) were seeded in six well plates, and cells were induced to senescence with 10 Gy of ionizing radiation (IR) (Day 0). The media was refreshed every 3 days. The senescent phenotype is allowed to develop for 7 days at which point a cell count was made to determine the baseline number of cells followed by seeding into 96-well plates. On day 8, the senescent cells (irradiated) and the non-senescent cells (the non-radiated cells), were exposed to serial dilutions of ABT-263 for a period of 3 days. ABT-263 concentrations ranged from 0.5 nM to 3 μM. Each condition was seeded in triplicate.
(§2) After three days of treatment (Day 11), cells were assayed for cell survival using the commercially available CellTiter-Glo® (CTG) Luminescent Cell Viability Assay (Promega Corporation, Madison, Wisconsin). The assay determines the number of viable cells in culture based on the quantitation of ATP present which is an indicator of metabolically active cells.
The experiments performed for assessing the effect of these other Bcl-2 inhibitors were performed essentially as described in Example 7. Cells were exposed to ABT-199 at serial dilution concentrations ranging from 15 nM to 100 μM (FIGS. 26 and 27). Cells were exposed to Obatoclax at concentrations ranging from 1.4 nM to 9 μM (FIG. 28).
IMR90 cells were induced to senescence by irradiation as described in Example 7. The irradiated IMR90 cells and non-senescent IMR90 cells were then exposed to a compound called ML214 that is a Bcl-2A1 specific inhibitor.
The effect of ABT-263 in combination with the Akt inhibitor MK-2206 was tested for selective toxicity of senescent cells compared to non-senescent cells in IMR90 cells. The methods of Example 7 were repeated except that cell cultures were exposed to 10 nM MK-2206 (Selleckem, Cat #S1078) in addition to serial dilutions of ABT-263.

[1] = test system: INK-ATTAC transgenic mice; assay: Cardiac stress test (isoproterenol) in aged INK-ATTAC transgenic mice; assay type: in vivo, mouse
Protocol: To study the impact of senescent cell clearance on health and lifespan, cohorts of INK-ATTAC transgenic mice on FVB×129Sv/E×C57BL/6 mixed or C57BL/6 pure genetic backgrounds were established. At 12 months age, one half of each cohort was injected three times/week with AP20187 to induce apoptosis of p16-positive senescent cells (0.2 mg/kg and 2 mg/kg AP20187 for the mixed and the pure C57BL/6 cohorts, respectively), while the other half of each cohort received vehicle. At 18 months, subsets of male and female mice from each cohort were subjected to a cardiac stress test, in which mice were injected with a lethal dose of isoproterenol (680 mg/kg) and the time to cardiac arrest was recorded.
Cardio-protective signaling pathways are known to provide tolerance to metabolic stresses such as ischemia and hypoxia decline (Granfeldt et al., 2009, Cardiovasc. Res. 83:234-246). However, cardio-protective signaling deteriorates with aging, thus decreasing the functional and adaptive reserve capacity of the heart (Ogawa et al., 1992, Circulation 86:494-503; Wiebe et al., 1998, Clin. J. Sport Med. 8:272-279). ATP-dependent K channels (KATP) play a central role in cardio-protective signaling (Gross and Auchampach, 1992, Cardiovasc. Res. 26:1011-1016). These KATP channels are composed of the pore-forming subunit Kir6.2/Kir6.1, the regulatory subunit Sur2a, and additional accessory proteins. KATP channels are thought to decline with aging due to decreased expression of Sur2a (Du et al., 2006, FASEB J. 20:1131-1141; Jovanovic and Jovanovic, 2009, Curr. Opin. Pharmacol. 9:189-193; Ranki et al., 2002, Mech. Ageing Dev. 123:695-705). […] Thus, the contribution of senescent cells to the age-related decline in Sur2a expression was examined in 18 month old AP20187-treated and vehicle treated mice from subjected to the cardiac stress test previously described. […] Taken together, these experiments indicate that the presence of senescent cells with aging negatively impacts KATP channel function, and senescent cell clearance is an effective therapy to counteract this deterioration.

[2] = test system: 3MR or INK-ATTAC mice exposed to cigarette smoke; assay: Chronic cigarette smoke exposure model (COPD); assay type: in vivo, mouse; settings: after 2 months of cigarette smoke exposure; vs untreated controls
Protocol: In a second animal model for pulmonary diseases (e.g., COPD), mice were exposed to cigarette smoke. The effect of a senolytic agent on the mice exposed to smoke is assessed by senescent cell clearance, lung function, and histopathology.
Six week-old 3MR (n=35) or INK-ATTAC (n=35) mice were chronically exposed to cigarette smoke generated from a Teague TE-10 system, an automatically-controlled cigarette smoking machine that produces a combination of side-stream and mainstream cigarette smoke in a chamber, which is transported to a collecting and mixing chamber where varying amounts of air is mixed with the smoke mixture. The COPD protocol was adapted from the COPD core facility at Johns Hopkins University (at Internet site web.jhu.edu/Biswal/exposure_core/copd.html#Cigarette_Smoke) (Rangasamy et al., 2004, J. Clin. Invest. 114:1248-1259; Yao et al., 2012, J. Clin. Invest. 122:2032-2045). Mice received a total of 6 hours of cigarette smoke exposure per day, 5 days a week for 6 months. Each lighted cigarette (3R4F research cigarettes containing 10.9 mg of total particulate matter (TPM), 9.4 mg of tar, and 0.726 mg of nicotine, and 11.9 mg carbon monoxide per cigarette [University of Kentucky, Lexington, KY]) was puffed for 2 seconds and once every minute for a total of 8 puffs, with the flow rate of 1.05 L/min, to provide a standard puff of 35 cm^3. The smoke machine was adjusted to produce a mixture of side stream smoke (89%) and mainstream smoke (11%) by smoldering 2 cigarettes at one time. The smoke chamber atmosphere was monitored for total suspended particulates (80-120 mg/m^3) and carbon monoxide (350 ppm). Beginning at day 7, (10) INK-ATTAC and (10) 3MR mice were treated with AP20187 (3× per week) or gancyclovir (5 consecutive days of treatment followed by 16 days off drug, repeated until the end of the experiment), respectively. An equal number of mice received the corresponding vehicle. The remaining […] (15 INK-ATTAC and 15 3MR) were evenly split with 5 of each genetically modified strain placed into three different treatment groups. One group (n=10) received Nutlin-3A (25 mg/kg dissolved in 10% DMSO/3% Tween-20 in PBS, treated 14 days consecutively followed by 14 days off drug, repeated until the end of the experiment). […]
After two months of cigarette smoke exposure, lung function was assessed by monitoring oxygen saturation using the MouseSTAT PhysioSuite pulse oximeter (Kent Scientific). […] Mice were monitored for 30 seconds and the average peripheral capillary oxygen saturation (SpO2) measurement over this duration was calculated.

[3] = test system: non-senescent IMR90 cells; assay: CellTiter-Glo cell viability assay, non-senescent IMR90; assay type: cell-based; settings: Homo sapiens, IMR-90, 72 h; non-senescent IMR90, 3 days
Protocol: as §1, §2
The experiments performed for assessing the effect of these other Bcl-2 inhibitors were performed essentially as described in Example 7. […]

p16-3MR animals = assay: Senescence induced by chemotherapeutic drugs in p16-3MR animals (luminescence); assay type: in vivo, mouse; settings: p<0.05; pomalidomide 5 mg/kg, lenalidomide 50 mg/kg 7 daily injections; doxorubicin 10 mg/kg 2-4 injections
Protocol: To examine senescence induced by different chemotherapeutic drugs, groups of p16-3MR animals (n=4) were treated with thalidomide (100 mg/kg; 7 daily injections); romidepsin (1 mg/kg; 3 injections); pomalidomide (5 mg/kg; 7 daily injections); lenalidomide (50 mg/kg; 7 daily injections); 5-azacytidine (5 mg/kg; 3 injections) and compared with doxorubicin (10 mg/kg, 2-4 injections over 7 days).

[4] = test system: myocardial damage in patients; settings: drug product inserts; cited from earlier work
p16-3MR transgenic mice = assay: Paclitaxel-induced senescence in p16-3MR mice; assay type: in vivo, mouse; settings: 20 mg/kg three times every two days
Protocol: Paclitaxel induces senescence and SASP in p16-3MR transgenic mice. Groups of mice (n=4) were treated three times every two days with 20 mg/kg paclitaxel or vehicle. […] The level of mRNA in skin was determined for each of the target genes: p16, 3MR transgene, and IL-6.

Structure (SMILES): CC1(C)CCC(CN2CCN(c3ccc(C(=O)NS(=O)(=O)c4ccc(NCC5CCOCC5)c([N+](=O)[O-])c4)c(Oc4cnc5[nH]ccc5c4)c3)CC2)=C(c2ccc(Cl)cc2)C1 [ABT-199]
- Selective targeting (killing) of senescent cells over non-senescent cells (senescent IMR90 cells; IMR90): inability

Structure (SMILES): CC[C@H](C(=O)N1CCCC[C@H]1C(=O)O[C@H](CCc1ccc(OC)c(OC)c1)c1cccc(OCC(=O)NCC(CNC(=O)COc2cccc([C@@H](CCc3ccc(OC)c(OC)c3)OC(=O)[C@@H]3CCCCN3C(=O)[C@@H](CC)c3cc(OC)c(OC)c(OC)c3)c2)CN(C)C)c1)c1cc(OC)c(OC)c(OC)c1 [AP20187]
- Time to cardiac arrest after lethal isoproterenol ([1]; 0.2 or 2 mg/kg three times/week from 12 to 18 months, isoproterenol 680 mg/kg): sustained youthful cardio-protection
- Sur2a expression ([1]; 18-month-old female mice): sustained Sur2a expression
- Median lifespan ([1]; INK-ATTAC mice): median lifespan extension
- SpO2 levels [2]: statistically significant increases

Structure (SMILES): COC1=CC(c2cc3ccccc3[nH]2)=N/C1=C\c1[nH]c(C)cc1C [Obatoclax]
- IC50 [3]: 75 nM
- IC50 (senescent IMR90 cells; Homo sapiens, IMR-90, 72 h, senescent IMR90, 3 days): 125 nM

Structure (SMILES): COc1cccc2c1C(=O)c1c(O)c3c(c(O)c1C2=O)C[C@@](O)(C(=O)CO)C[C@@H]3O[C@H]1C[C@H](N)[C@H](O)[C@H](C)O1 [doxorubicin]
- Level of senescent cells (luminescence) (p16-3MR animals): significant levels of senescent cells
- Total lifetime dose above which myocardial damage may lead to congestive heart failure [4]: exceeds 550 mg/m^2

Structure (SMILES): Nc1cccc2c1CN(C1CCC(=O)NC1=O)C2=O (stereo not drawn) [lenalidomide]
- Level of senescent cells (luminescence) (p16-3MR animals): significant levels of senescent cells

Structure (SMILES): Nc1cccc2c1C(=O)N(C1CCC(=O)NC1=O)C2=O (stereo not drawn) [omalidomide]
- Level of senescent cells (luminescence) (p16-3MR animals): significant levels of senescent cells

Structure (SMILES): CC(=O)O[C@H]1C(=O)[C@@]2(C)[C@H]([C@H](OC(=O)c3ccccc3)[C@]3(O)C[C@H](OC(=O)[C@H](O)[C@@H](NC(=O)c4ccccc4)c4ccccc4)C(C)=C1C3(C)C)[C@]1(OC(C)=O)CO[C@@H]1C[C@@H]2O [paclitaxel]
- Senescence shown by luminescence (p16-3MR transgenic mice): Senescence was observed
- 3MR transgene mRNA in skin (p16-3MR transgenic mice; vs vehicle): increased
- IL-6 mRNA in skin (p16-3MR transgenic mice; vs vehicle): increased
- p16 mRNA in skin (p16-3MR transgenic mice; vs vehicle): increased

Source: US11980616B2, “Treating liver disease by selectively eliminating senescent cells” (Buck Institute for Research on Aging, priority 2014, dated 2024)
